The values that follow come from BindingDB's records for doi:10.1021/jm000508c (Ontogen, 2001).

Each structure is given as a SMILES string. A value given as a limit tells only on which side of the number the result lay.

Assay [1] in a line: Inhibitory activity against P-selectin using cell-cell assay.
A short description of assay [2]: Inhibitory activity against Selectin E using cell-cell assay.

For orientation: IC50 means the midpoint of a concentration-inhibition curve. In the case of `CCCCCCCCCCCCNC(=O)C=Cc1ccc(-c2[nH]c(-c3ccc(-c4cc(C(=O)O)on4)cc3)nc2-c2ccc(C=CC(=O)O)cc2)cc1` [3-(4-{4-[4-(2-Carboxy-vinyl)-phenyl]-5-[4-(2-dodecylcarbamoyl-vinyl)-phenyl]-1H-imidazol-2-yl}-phenyl)-isoxazole-5-carboxylic acid], half-maximal inhibition in assay [1] (IC50) was put at 500 µM.

For `CCCCCCCCCCCCCCCCNC(=O)C=Cc1ccc(-c2[nH]c(-c3ccc(C4=NOC(C(=O)O)C4)cc3)nc2-c2ccc(C=CC(=O)O)cc2)cc1` (stereo not drawn) [3-(4-{4-[4-(2-Carboxy-vinyl)-phenyl]-5-[4-(2-hexadecylcarbamoyl-vinyl)-phenyl]-1H-imidazol-2-yl}-phenyl)-4,5-dihydro-isoxazole-5-carboxylic acid], the IC50 came out at 14 µM in assay [1] and 30 µM in assay [2].

Consider `CCCCCCCCCCCCCCCCNC(=O)C=Cc1ccc(-c2[nH]c(-c3ccc(-c4cc(C(=O)O)on4)cc3)nc2-c2ccc(C=CC(=O)O)cc2)cc1` [3-(4-{4-[4-(2-Carboxy-vinyl)-phenyl]-5-[4-(2-hexadecylcarbamoyl-vinyl)-phenyl]-1H-imidazol-2-yl}-phenyl)-isoxazole-5-carboxylic acid], for which the figures for the 50% inhibitory concentration (IC50) in assay [1] and in assay [2] were 8 µM and 20 µM, respectively.

Regarding `CCCCCCCCCCCCCCCCNC(=O)C=Cc1ccc(-c2[nH]cnc2-c2ccc(C=CC(=O)O)cc2)cc1` [3-(4-{5-[4-(2-Hexadecylcarbamoyl-vinyl)-phenyl]-1H-imidazol-4-yl}-phenyl)-acrylic acid], the IC50 is 98 µM in assay [1] and more than 100 µM in assay [2].

As to `O=C(O)C=Cc1ccc(-c2nc(-c3ccc(C4=NOC(C(=O)O)C4)cc3)c(-c3ccc(C=CC(=O)NCCCc4ccccc4)cc3)[nH]2)cc1` (stereo not drawn) [3-[4-(2-[4-(2-Carboxy-vinyl)-phenyl]-5-{4-[2-(3-phenyl-propylcarbamoyl)-vinyl]-phenyl}-1H-imidazol-4-yl)-phenyl]-4,5-dihydro-isoxazole-5-carboxylic acid], the IC50 in assay [1] was determined as 123 µM.
